Key:
[1] = Hygroscopicity, dynamic vapor sorption (DVS), 0-95% RH; assay type: physicochemical; settings: for change of crystal form / hygroscopicity (in words): range of 0-95% relative humidity
Experimental: Dynamic vapor sorption (DVS) method, instrument model: SMS DVS Intrinsic, 0˜95% RH, temperature: 25° C.; FTIR method, instrument model: Nicolet 6700, sectral range: 4000˜400 cm^−1, resolution ratio: 4 cm^−1, scanning times: 32, the infrared spectra of the samples were determined by KBr pressed-disk technique method, temperature: 25° C.;
In this invention, it is named as leonurine crystal form A, which is monohydrate crystal form, square block crystal (as shown in FIG. 13), no crystal transformation before melting, dehydrates at 120˜150° C. and transform into anhydrous crystal form B, and decomposes at about 250° C. […] Under the condition of, in the suspension experiment at 25° C., in methanol, ethanol, isopropanol, acetone, acetonitrile, tetrahydrofuran, nitromethane, ethyl acetate, isopropyl acetate, isoamyl alcohol, methyl tert-butyl ether, toluene, methyl isobutyl ketone, n-hexane, n-heptane, ether, dichloromethane, chloroform, petroleum ether, water and other solvents; and under the condition of, in the suspension experiment at 50° C., in methanol, ethanol, acetone, methyl ethyl ketone, isopropyl acetate, methyl tert-butyl ether, toluene, n-hexane, n-heptane, diethyl ether, chloroform, petroleum ether, water and other solvents; and under most solvent conditions in suspension and volatilization of mixed solvents at 25° C. and 50° C., form A can be obtained. […] In a range of 0˜95% RH, the dehydration and water absorption behavior of the crystal form is very weak.

[2] = Accelerated stability test of leonurine crystal forms; assay type: physicochemical; settings: 40° C.; for Crystal stability: 70% RH, 10 days
Excerpt: In the invention, the dominant medicinal crystal form was also screened by the accelerated stability experimental method, and observed the transformation among the various crystal forms.

New Zealand white rabbit = test: Serum lipids in hyperlipidemia New Zealand rabbits on high fat diet; assay type: in vivo; settings: positive control 2.5 mg/kg/day intragastric, 12 weeks, vs model group
Experimental: Forty-eight male New Zealand rabbits weighed 1.8 to 2.2 kg were housed under 12 h dark-12 h light cycles and allowed food and water ad libitum to adapt to the housing environment for one week, and then randomly divided into 6 groups: • 1) Control group (Normal diet, n=8); Administered intragastrically with ultrapure water; • 2) Model group (High fat diet, n=8); Administered intragastrically with ultrapure water; • 3) Leonurine crystal form A in low dose group (High fat diet, n=8); Administered intragastrically at a dose of 4 mg/kg/day; • 4) Leonurine crystal form A in middle dose group (High fat diet, n=8); Administered intragastrically at a dose of 8 mg/kg/day; • 5) Leonurine crystal form A in high dose group (High fat diet, n=8); […] Administered intragastrically at a dose of 2.5 mg/kg/day; Rabbits were weighed before administered drugs every week, where the dosage of the drug for rabbits is calculate according to the weight; and housed in an air-conditioned room under (24±1° C. room temperature and 55±5% air humidity) and allowed enough food and water ad libitum. After 12 weeks of administration, the rabbits were fasted for 12 h, and blood (2 ml) was drawn from the marginal ear vein for hematology analysis. Hematology analysis: blood samples were let for standing for 2 h and centrifuged (3000 rpm, 10 min, 4° C.) to obtain serum. The serum samples were tested according to the protocols recommended by Nanjing Jiancheng Bioengineering Institute. The total cholesterol (TC), triacylglycerol (TG), low-density cholesterol (LDL-C) and […] (HDL-C) levels in the serum samples were assessed using automatic microplate reader and automatic biochemical analyzer. Statistical analysis: GraphPad Prism 5 software was used to analyze and draw figure. Results were expressed as the mean±standard (mean±SD), and statistical analysis was performed by one-way analysis of variance (ANOVA) or student's t test. A difference with P<0.05 was considered statistically significant. Statistical significance was set at *P<0.05, **P<0.01, ***P<0.001 versus the model group.

ApoE knockout mice = test: Serum lipids in hyperlipidemia ApoE knockout mice on high fat diet; assay type: in vivo; settings: positive control 3 mg/kg/day intragastric, 4 weeks, vs model group
Experimental: Fifteen C57BL/6J mice (male, 6-8 weeks) and seventy-five ApoE knockout mice (male, 6-8 weeks) were used for experiments. C57BL/6J mice were fed with normal diet, and ApoE knockout mice were fed for 1 week with a diet of normal/high fat diet ratio of 1/1.
Mice were weighed before administered drugs every week, where the dosage of the drug for mice is calculate according to the weight; and housed under 24±1° C. room temperature and 55±5% air humidity condition, and allowed enough food and water ad libitum. After the drug administration continuously for 4 weeks, the mice were anesthetized with pentobarbital sodium according to body weight. Blood (0.5 ml per mouse) was drawn from the inner canthus vein for hematology analysis. Hematology analysis: blood samples were let for standing for 2 h and centrifuged (3000 rpm, 10 min, 4° C.) to obtain serum. The total cholesterol (TC), triacylglycerol (TG) and low-density cholesterol (LDL-C) levels in the serum samples were assessed using automatic biochemical analyzer. Statistical analysis: GraphPad Prism 5 software was used to analyze and draw figure. Results were expressed as the mean±standard (mean±SD), and statistical analysis was performed by one-way analysis of variance (ANOVA) or student's t test. A difference with P<0.05 was considered statistically significant. Statistical significance was set at *P<0.05, **P<0.01, ***P<0.001 versus the model group.

[3] = relative humidity 60%-80%, 10-day stability test

| hygroscopicity, water absorption ([1]; 60% RH) | hygroscopicity, water absorption ([1]; 80% RH) | change of crystal form [1] | hygroscopicity (in words) [1] | Crystal stability [2] | Crystal stability ([2]; listed as E) | crystal transformation behavior [2, 3] | hygroscopicity (in words) [2, 3] | hygroscopicity relative to crystal form A [2, 3] | Crystal stability ([2]; listed as D) | Crystal stability ([2]; listed as F) | Crystal stability ([2]; listed as form F) | Crystal stability ([2]; listed as B) | Crystal stability ([2]; listed as C) | SMILES | serum total cholesterol (TC) (New Zealand white rabbit) | serum triacylglycerol (TG) (New Zealand white rabbit) | serum total cholesterol (TC) (ApoE knockout mice) | serum triacylglycerol (TG) (ApoE knockout mice) |
| --- | --- | --- | --- | --- | --- | --- | --- | --- | --- | --- | --- | --- | --- | --- | --- | --- | --- | --- |
| 60% RH, water absorption 0.07% | 80% RH, water absorption 0.12% | didn't change | slight hygroscopicity | remain unchanged | stable | did not appear crystal transformation | strong | about ten times | – | – | – | – | – | COc1cc(C(=O)OCCCCNC(=N)N)cc(OC)c1O [crystal form E, 4-guanidino-1-butyl 4-hydroxy-3,5-dimethoxybenzoate] | – | – | – | – |
| 60% RH, water absorption 1.63% | 80% RH, water absorption 0.98% | changed into crystal form A | – | transformed into crystal form A | – | appeared crystal transformation | – | – | form into A | – | – | – | – | COc1cc(C(=O)OCCCCNC(=N)N)cc(OC)c1O [crystal form D, 4-guanidino-1-butyl 4-hydroxy-3,5-dimethoxybenzoate] | – | – | – | – |
| 60% RH, water absorption 0.14% | 80% RH, water absorption 0.30% | changes into crystal form A | slightly hygroscopicity | – | – | appeared crystal transformation | – | – | – | form into A | transformed into crystal form A | – | – | COc1cc(C(=O)OCCCCNC(=N)N)cc(OC)c1O [crystal form F, 4-guanidino-1-butyl 4-hydroxy-3,5-dimethoxybenzoate] | – | – | – | – |
| – | – | – | – | – | – | – | – | – | – | – | – | – | – | CC(C)c1c(C(=O)Nc2ccccc2)c(-c2ccccc2)c(-c2ccc(F)cc2)n1CC[C@@H](O)C[C@@H](O)CC(=O)O [Atorvastatin, reference compound] | no significant difference | reduced | reduced | reduced |
| 60% RH, water absorption 0.14% | 80% RH, water absorption 0.30% | changed into crystal form A | slightly hygroscopicity | transformed into crystal form A | – | appeared crystal transformation | – | – | – | – | – | form into A | – | COc1cc(C(=O)OCCCCNC(=N)N)cc(OC)c1O [crystal form B, 4-guanidino-1-butyl 4-hydroxy-3,5-dimethoxybenzoate] | – | – | – | – |
| 60% RH, water absorption 0.56% | 80% RH, water absorption 1.05% | changed into crystal form A | – | transformed into crystal form A | – | appeared crystal transformation | – | – | – | – | – | – | form into A | COc1cc(C(=O)OCCCCNC(=N)N)cc(OC)c1O [crystal form C, 4-guanidino-1-butyl 4-hydroxy-3,5-dimethoxybenzoate] | – | – | – | – |
